Ends that are not written are not given here.
How the values were obtained:
bladder cancer = conditions: rodents; cited from earlier work
PPARG = target: T1, PPARG (Homo sapiens, UniProt P37231); test: RT112/84 FABP4-NLucP reporter gene assay, unstimulated; type: cell-based
T1 construct: endogenous in cells; host or cells: RT112/84 bladder cancer cells (FABP4-NLucP knock-in clone)
T1 sequence (P37231 1-477 isoform P37231-2): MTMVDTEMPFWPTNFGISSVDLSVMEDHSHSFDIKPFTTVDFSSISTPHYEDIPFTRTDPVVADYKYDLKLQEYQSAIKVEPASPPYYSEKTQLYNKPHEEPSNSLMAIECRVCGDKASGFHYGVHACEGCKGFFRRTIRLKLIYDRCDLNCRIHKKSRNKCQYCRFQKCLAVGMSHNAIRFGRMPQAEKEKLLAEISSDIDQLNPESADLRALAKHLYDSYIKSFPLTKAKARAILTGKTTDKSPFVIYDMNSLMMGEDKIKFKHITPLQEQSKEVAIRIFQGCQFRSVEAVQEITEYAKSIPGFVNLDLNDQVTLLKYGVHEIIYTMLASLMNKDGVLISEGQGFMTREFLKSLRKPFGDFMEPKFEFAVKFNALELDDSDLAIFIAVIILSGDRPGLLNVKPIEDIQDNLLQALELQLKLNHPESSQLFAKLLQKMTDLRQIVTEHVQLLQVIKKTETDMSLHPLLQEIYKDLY
Text: Next, a PPARG reporter cell line was engineered to enable higher throughput assays to evaluate PPARG transactivation. Briefly, a destabilized NanoLuc luciferase reporter gene was inserted into the 3′-UTR of the FABP4 gene in the RT112/84 bladder cancer cell line using CRISPR/Cas9 mediated homology-directed repair (FIG. 4A).
RT112-FABP4-NLucP Reporter Gene Assay: Reporter cell line was generated by engineering NanoLuc gene into the 3′ UTR of FABP4 in RT112/84 cells using CRISPR/Cas9 guided genome engineering. Single cell clones were generated and the clone with the widest dynamic range selected for use. Assays were performed by seeding 384-well plates with ˜10,000 cells per well in MEMalpha containing 10% FBS and dosing compounds at indicated concentration using HP D300 digital dispenser (HP/Tecan). 18-24 hours after dosing with compound, cells were assayed using NanoGlo Luciferase Assay Reagent (Promega Madison, WI) and plates were read using EnVision Multilabel Reader (PerkinElmer Waltham, MA).

[1] = target: T2, PPARG ligand-binding domain - TRAP220/MED1 coactivator peptide (Homo sapiens, UniProt P37231); test: TR-FRET coactivator assay, TRAP220/MED1 peptide; type: biochemical
T2 construct: purchased ThermoFisher Scientific
T2 sequence (P37231 238-503 limits assumed): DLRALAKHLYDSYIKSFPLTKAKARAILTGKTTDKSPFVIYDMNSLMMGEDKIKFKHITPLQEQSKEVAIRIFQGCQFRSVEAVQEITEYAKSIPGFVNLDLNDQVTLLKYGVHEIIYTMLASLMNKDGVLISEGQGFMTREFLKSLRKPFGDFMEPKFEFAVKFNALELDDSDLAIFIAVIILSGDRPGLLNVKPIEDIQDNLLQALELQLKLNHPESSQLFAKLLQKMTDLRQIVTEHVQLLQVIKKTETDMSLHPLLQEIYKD

[2] = target: T3, PPARG ligand-binding domain (Homo sapiens, UniProt P37231); test: TR-FRET PPARG competition binding assay; conditions: maximal concentration tested 10 uM
T3 sequence (P37231 238-503 limits assumed): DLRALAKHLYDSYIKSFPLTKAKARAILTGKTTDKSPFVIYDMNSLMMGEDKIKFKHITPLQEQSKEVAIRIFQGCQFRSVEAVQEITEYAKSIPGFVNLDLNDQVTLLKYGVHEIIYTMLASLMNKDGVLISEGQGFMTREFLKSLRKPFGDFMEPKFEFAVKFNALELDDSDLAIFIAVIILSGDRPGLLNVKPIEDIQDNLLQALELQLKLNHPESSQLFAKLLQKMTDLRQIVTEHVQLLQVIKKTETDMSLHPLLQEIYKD
Experimental: To evaluate binding affinity, a PPARG competition binding assay that measures displacement of a fluorescent PPARG ligand from the PPARG ligand-binding domain was used.
Biochemical Assays: The LanthaScreen TR-FRET PPAR gamma Competitive Binding Assay and LanthaScreen TR-FRET PPAR gamma Coactivator Assay were obtained from ThermoFisher Scientific. Assays were performed according to the manufacturer's protocol. In order to assay inverse-agonism, the Coactivator assay was modified by the use of fluorescently labeled co-repressor peptides (NCoR1 ID2 peptide, SMRT ID2 peptide) to convert from agonist mode (coactivator recruitment) into inverse-agonist mode (corepressor recruitment).

5637 cells = test: Proliferation assay in PPARG-amplified 5637 cells; type: cell-based; conditions: Homo sapiens; data not shown
Experimental: To determine if treatment of PPARG-activated bladder cancer cell lines with PPARG modulators impacted viability, a variety of compounds were tested in proliferation assays.

UM-UC-9 cells [3] = test: Direct cell counting dose-response proliferation assay; type: cell-based, human
Experimental: To determine whether PPARG modulators affect the proliferation and/or viability of PPARG-activated bladder cancer cell lines, a direct cell counting-based assay was performed. This assay likely avoids potential artifacts associated with the use of an ATP content-based assay, given that PPAR modulators are known to regulate cellular metabolic activity. […] These IC50 values align well with the calculated IC50s from both the cell-based reporter gene assay (FIG. 8A) and the biochemical corepressor assay (FIG. 8D).
(§1) Proliferation Assays: To enable cell-counting experiments, cell lines were transduced with a lentiviral vector encoding nuclear-targeted GFP, TagGFP2-H2B (Evrogen), and stable pools generated following selection for puromycin resistance. Cell lines were maintained for at least 7 days following selection prior to expansion and seeding into 96- or 384-well plates for further analysis. For kinetic proliferation assays, 96-well plates (n 1% 4 per condition) were imaged and counted every two hours using IncuCyte Zoom (Essen BioScience). Media and compounds were replaced approximately every 3-4 days. For endpoint assays to measure dose-response, cells were plated in 384-well plates, dosed with compound, and upon reaching approximately 70% to 90% confluence in control wells, cells were either counted using fluorescence imaging (Incu-Cyte Zoom) or incubated with CyQuant (Thermo Fisher) at the indicated time and plates were read with a fluorescent plate reader.

UM-UC-9 cells [4] = test: Kinetic proliferation assay (IncuCyte), percent of DMSO control; type: cell-based, human; conditions: 100 nmol/L; DMSO control at 50% confluency
Text: This assay was expanded to include an additional 8 representative bladder cancer cell lines, including cell lines with PPARG amplification, RXRA p.S427F mutation, activated gene signature, and control cell lines with low level expression of PPARG and target genes. […] Representative data for the UM-UC-9 cell line are shown in FIG. 6B, and is tabulated for the tested bladder cancer cell lines in Table 1. […] Similar results were obtained with these cell lines in parallel studies using clonogenic assays to quantify colony-forming ability (FIG. 10).
as §1, with “Cell lines were maintained for at least 7 days following selection prior to expansion and seeding into 96- or 384-well plates for further analysis.” left out, “Media and compounds were replaced approximately every 3-4 days.” left out

[5] = system: PPARG-activated bladder cancer cell lines; test: Proliferation assays in PPARG-activated bladder cancer cell lines; type: cell-based, human; conditions: 100 nM-500 nM
Experimental: A panel of bladder cancer cell lines with PPARG modulators in colony formation assays was then tested (FIG. 10), kinetic proliferation assays (IncuCyte Zoom; Essen Bioscience) using cell lines treated with a single concentration of compound (100 nM-500 nM), and end-point dose-response assays (CellTiter Glo or CyQuant).
This assay was expanded to include an additional 8 representative bladder cancer cell lines, including cell lines with PPARG amplification, RXRA p.S427F mutation, activated gene signature, and control cell lines with low level expression of PPARG and target genes. […] Representative data for the UM-UC-9 cell line are shown in FIG. 6B, and is tabulated for the tested bladder cancer cell lines in Table 1. […] This significant (P<0.01) preferential sensitivity to PPARG inverse-agonists, but not antagonists, is maintained across all of the PPARG-activated cell lines in the panel, including the RXRA p.S427F cell line, HT-1197 (41), the PPARG-amplified cell lines, 5637 and UM-UC-9, and the PPARG activation gene signature cell lines Cal29, UM-UC-1, and RT112/84 (FIG. 12). […] Similar results were obtained with these cell lines in parallel studies using clonogenic assays to quantify colony-forming ability (FIG. 10).
as §1

[6] = system: PPARG-activated pancreatic and colorectal cancer cell lines; test: Kinetic proliferation assay in pancreatic and colorectal cancer cell lines; type: cell-based; conditions: 500 nM
Text: To enable cell-counting, cell lines were transduced with a lentiviral vector encoding nuclear-targeted GFP (TagGFP2-H2B), and stable pools generated following selection for puromycin-resistance. Cell lines were maintained for at least 7 days following selection prior to expansion and seeding into 96-well plates for further analysis. For kinetic proliferation assays, 96-well plates were imaged in phase-contrast and green fluorescence mode every two hours using IncuCyte Zoom (Essen BioScience, Ann Arbor MI). Using IncuCyte software, the number of fluorescent nuclei were counted to monitor quantitative changes in cell number over time. Media and compounds were replaced approximately every 3-4 days.
DMSO treatment was also included as a vehicle control.

[7] = target: T4, PPARG ligand-binding domain - SMRT/NCOR2 corepressor peptide (Homo sapiens, UniProt P37231); test: TR-FRET corepressor assay, SMRT/NCOR2 peptide; type: biochemical
T4 construct: purchased ThermoFisher Scientific
T4 sequence (P37231 238-503 limits assumed): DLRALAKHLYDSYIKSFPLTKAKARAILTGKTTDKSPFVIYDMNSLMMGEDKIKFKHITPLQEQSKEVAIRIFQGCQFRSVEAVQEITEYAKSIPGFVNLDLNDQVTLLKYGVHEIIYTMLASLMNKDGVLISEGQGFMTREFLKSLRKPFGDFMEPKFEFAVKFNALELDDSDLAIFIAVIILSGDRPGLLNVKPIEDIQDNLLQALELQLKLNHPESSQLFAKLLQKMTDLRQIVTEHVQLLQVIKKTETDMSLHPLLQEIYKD
Experimental: (§2) To evaluate inverse-agonism, a TR-FRET PPARG co-repressor assay (ThermoFisher) that measures recruitment of a fluorescent NCOR1 or NCOR2 corepressor peptide to the PPARG ligand-binding domain was used (ThermoFisher).
To determine effects on interactions between PPARG and coregulators, PPARG modulators were tested in two TR-FRET biochemical interaction assays for agonism and inverse-agonism. Agonism was quantitated using a coactivator assay, which measured the interaction between the PPARG ligand-binding domain and a fluorescently-labeled peptide from TRAP220/MED1. […] To evaluate inverse-agonism biochemically, ligand-dependent interactions were measured between PPARG ligand-binding domain and corepressor peptides from NCoR/NCOR1 and SMRT/NCOR2.

[8] = target: T5, PPARG ligand-binding domain - NCoR/NCOR1 corepressor peptide (Homo sapiens, UniProt P37231); test: TR-FRET corepressor assay, NCoR/NCOR1 peptide; type: biochemical; conditions: data not shown
T5 construct: purchased ThermoFisher Scientific
T5 sequence (P37231 238-503 limits assumed): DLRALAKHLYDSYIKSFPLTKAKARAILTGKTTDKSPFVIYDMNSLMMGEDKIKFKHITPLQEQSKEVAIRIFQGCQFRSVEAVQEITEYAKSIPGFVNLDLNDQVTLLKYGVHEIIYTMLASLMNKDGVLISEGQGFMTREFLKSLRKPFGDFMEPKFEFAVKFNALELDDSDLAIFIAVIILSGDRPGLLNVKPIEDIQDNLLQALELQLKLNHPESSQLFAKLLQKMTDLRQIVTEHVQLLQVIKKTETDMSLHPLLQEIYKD
Experimental: as §2
In addition to the PPARG-NCOR2 interaction assay described above, interactions between PPARG and a peptide from the corepressor NCOR1 were measured.

[9] = target: Terbium-labeled PPARG ligand binding domain (PPARG-LBD) (Macaca mulatta (Rhesus macaque)) (UniProt O18924); test: TR-FRET corepressor assay, PPARG-LBD and SMRT/NCOR2 peptide; with antagonists GW9662 and SR2595
[10] = target: Terbium-labeled PPARG ligand binding domain (PPARG-LBD) (Macaca mulatta (Rhesus macaque)) (UniProt O18924); test: TR-FRET corepressor assay, PPARG-LBD and SMRT/NCOR2 peptide; with inverse-agonists T0070907 and SR10221
[11] = target: Terbium-labeled PPARG ligand binding domain (PPARG-LBD) (Macaca mulatta (Rhesus macaque)) (UniProt O18924); test: TR-FRET corepressor assay, PPARG-LBD and SMRT/NCOR2 peptide; with agonists rosiglitazone, tesaglitazar and GW9129 (so in the source)
[12] = target: Terbium-labeled PPARG ligand binding domain (PPARG-LBD) (Macaca mulatta (Rhesus macaque)) (UniProt O18924); test: TR-FRET PPARG-NCOR1 interaction assay; with GW9662 (data not shown)
[13] = target: Terbium-labeled PPARG ligand binding domain (PPARG-LBD) (Macaca mulatta (Rhesus macaque)) (UniProt O18924); test: TR-FRET PPARG-NCOR1 interaction assay; with SR10221 (data not shown)
[14] = target: Terbium-labeled PPARG ligand binding domain (PPARG-LBD) (Macaca mulatta (Rhesus macaque)) (UniProt O18924); test: TR-FRET PPARG-NCOR1 interaction assay; with T0070907 (data not shown)

CCc1ccc(CCOc2ccc(CC3SC(=O)NC3=O)cc2)nc1 (stereo not drawn) [pioglitazone]
carcinogenic effect, bladder cancer (bladder cancer): carcinogenic effect in rodents was also observed

CC(C)(c1ccc(OCC2CO2)cc1)c1ccc(OCC2CO2)cc1 (stereo not drawn) [BADGE, Bisphenol A diglycidyl ether]
effect on unstimulated reporter (PPARG): minimal detectable effect | effect in coactivator assay [1]: minimal effect | binding to PPARG LBD, competition with fluorescent ligand [2]: weak activity

CC1=C2C=C(C(=O)N[C@@H](C)c3ccc(C(C)(C)C)cc3)C=CC2N(Cc2ccc(Cl)c(O[C@@H](C)C(=O)O)c2)C1C (stereo partly drawn) [SR10221]
IC50 (5637 cells): 20 to 30 nM | effect on cell proliferation compared with DMSO control (UM-UC-9 cells [3]): significantly reduced proliferation | IC50 (UM-UC-9 cells [3]; Homo sapiens, UM-UC-9, read-out: calculated IC50, proliferation): 16 nM | reduction of proliferation relative to control (UM-UC-9 cells [4]): 80% | sensitivity of cell lines [5]: preferentially sensitive | sensitivity of cell lines [6]: preferentially sensitive | effect on PPARG-NCOR2 interaction [7]: induce interaction between PPARG and NCOR2 | induced signal [8]: less than 2 fold

HASTNMGLEAIIRKALMGKYDQW (also: fluorescein-labeled, site not given here) [fluorescein-labeled SMRT ID2 corepressor peptide (SMRT/NCOR2)]
fold increase in signal [9]: 1.7 fold | fold increase in signal [10]: 3 to 6 fold | decrease in signal [11]: 50 to 60%

DPASNLGLEDIIRKALMGSFDDK (also: fluorescently labeled, site not given here) [fluorescently labeled NCoR1 ID2 corepressor peptide (NCoR/NCOR1)]
fold induction of signal [12]: 2.5 fold | fold induction of signal [13]: < 2 fold | fold induction of signal [14]: 6 to 8 fold
